Like-named read-outs stand apart in the source and are kept apart here.
Assays:
[1] = test system: U251 glioblastoma cells; assay: XTT viability assay, U251; type: cell-based; conditions: Homo sapiens, U-251, read-out: metabolic active cells in % of control; for viability at 5 µg/mL: U251, 5 µg/mL; for viability at 5 µg/mL / viability at 50 µg/mL: 72 h; for viability at 50 µg/mL: U251, 50 µg/mL
Description: (§1) Human CCRF-CEM leukemia and MDA-MB-231 breast cancer cells lines were kept in RPMI1640 medium (Gibco®, ThermoFisher Scientific Inc., New York, NY, USA), supplemented with 2 mM L-glutamine (Gibco®), 10% heat-inactivated foetal bovine serum (FBS, Gibco®), 100 units/mL Penicillin (PAA), and 100 µg/mL Streptomycin (Gibco®) (1% Pen/Strep). HCT-116 and U251 cells were cultured in high-glucose Dulbecco’s Modified Eagle Medium (DMEM, Gibco®) containing 2 mM L-glutamine, 10% FBS, and 1% Pen/Strep. MRC-5 cells were grown in Minimum Essential Medium (MEM, Gibco®) supplemented with 2 mM L-glutamine, 10% FBS, and 1% Pen/Strep. All cells were kept in a humidified 5% CO2 atmosphere at 37 °C and passaged at 90% confluence.
(§2) A Cell Proliferation Kit II (XTT) was purchased from Sigma-Aldrich and performed as described previously and in accordance with the manufacturer’s protocol. In brief, adherent cell lines were seeded at a density of 50,000 cells/mL or 100,000 cells/mL (MRC-5) in 96 well plates (100 µL, flat bottom) and grown for 24 h before test compounds were added. Suspension cells (CCRF-CEM) were seeded at 100,000 cells/mL and test compounds were added immediately. After 72 h, XTT solution was added for another 90 min or 4 h (CCRF-CEM cells) and absorbance was measured at 490 nm with a reference wave length of 650 nm (Hidex Sense Microplate Reader 425-301, Hidex, Turku, Finland). Results are expressed as a percentage of the vehicle-treated (0.5% DMSO) control cells. Vinblastine served as the positive control (0.01 µg/mL).

[2] = test system: MDA-MB-231 breast cancer cells; assay: XTT viability assay, MDA-MB-231; type: cell-based; conditions: Homo sapiens, read-out: metabolic active cells in % of control; for viability at 5 µg/mL: MDA-MB-231, 5 µg/mL; for viability at 5 µg/mL / viability at 50 µg/mL: 72 h; for viability at 50 µg/mL: MDA-MB-231, 50 µg/mL
Description: as §1, §2

[3] = test system: P. falciparum, strain NF54, erythrocytic stages; assay: In vitro growth inhibition assay of Plasmodium falciparum NF54 ([3H]-hypoxanthine incorporation); type: cell-based; conditions: for IC50: Plasmodium falciparum; for SI (IC50 in L6 cells/IC50 P. falciparum): ratio IC50 L6 / IC50 P. falciparum NF54
Description: In vitro activity against erythrocytic stages of P. falciparum was determined by a modified [^3H]-hypoxanthine incorporation assay using the drug-sensitive NF54 strain and the standard drug, chloroquine (Sigma C6628). Briefly, parasite cultures incubated in RPMI 1640 medium with 5% AlbuMAX^TM (without hypoxanthine) were exposed to serial drug dilutions in microtiter plates. After 48 h of incubation at 37 °C in a reduced oxygen atmosphere, 0.5 μCi [^3H]-hypoxanthine was added to each well of the plate. Cultures were incubated for a further 24 h before they were harvested onto glass-fiber filters and washed with distilled water. The radioactivity was counted using a Betaplate^TM liquid scintillation counter (Wallac, Zurich). The results were recorded as counts per minute (CPM) per well at each drug concentration and expressed as a percentage of the untreated controls. IC50 values were calculated from the sigmoidal inhibition curves using Microsoft Excel.

[4] = test system: L6 cells rat skeletal myoblasts; assay: Cytotoxicity against L6 cells (Alamar Blue); type: cell-based; conditions: read-out: Cyt. L6 IC50
Description: Assays were performed in 96-well microtiter plates, each well containing 100 μL of RPMI 1640 medium supplemented with 1% L-glutamine (200 mM) and 10% foetal bovine serum, and 4000 L6 cells (a […] cell line derived from rat skeletal myoblasts). Serial drug dilutions of 11 threefold dilution steps covering a range from 100 to 0.002 μg/mL were prepared. After 72 h of incubation, the plates were inspected under an inverted microscope to assure growth of the controls and sterile conditions. 10 μL of Alamar Blue solution was then added to each well and the plates incubated for another 2 h. Then, the plates were read with a Spectramax Gemini XS microplate fluorometer (Molecular Devices Cooperation, Sunnyvale, CA, USA) using an excitation wavelength of 536 nm and an emission wavelength of 588 nm. The IC50 values were calculated by linear regression from the sigmoidal dose inhibition curves using the microplate reader software, Softmax Pro (Molecular Devices Cooperation, Sunnyvale, CA, USA). Podophyllotoxin (Sigma P4405) was used as the control.

[5] = test system: T. brucei rhodesiense, strain STIB900 trypomastigote forms; assay: In vitro growth inhibition assay of Trypanosoma brucei rhodesiense (Alamar Blue); type: cell-based; conditions: for IC50: Trypanosoma brucei, 72 h, read-out: T.b.rhod. IC50; for SI (IC50 in L6 cells/IC50 T. b. rhodesiense): ratio IC50 L6 / IC50 T. b. rhodesiense STIB900
Description: Trypanosoma brucei rhodesiense, STIB 900 strain, and the standard drug, melarsoprol, were used for the assay. Minimum Essential Medium (50 μL) supplemented with 25 mM HEPES, 1g/L additional glucose, 1% MEM non-essential amino acids (100×), 0.2 mM 2-mercaptoethanol, 1 mM Na-pyruvate, and 15% heat-inactivated horse serum was added to each well of a 96-well microtiter plate. Serial drug dilutions of 11 three-fold dilution steps covering a range from 100 to 0.002 μg/mL were prepared. Then, 4 × 10^3 bloodstream forms of T. b. rhodesiense (STIB 900) in 50 μL were added to each well and the plate was incubated at 37 °C under a 5% CO2 atmosphere for 72 h. 10 μL Alamar Blue (resazurin, 12.5 mg in 100 mL double-distilled water) was then added to each well and incubation continued for a further 2–4 h. Then, the plates were read with a Spectramax Gemini XS microplate fluorometer (Molecular Devices Cooperation, Sunnyvale, CA, USA) using an excitation wavelength of 536 nm and an emission wavelength of 588 nm. The IC50 values were calculated from the sigmoidal inhibition curves using the microplate reader software, Softmax Pro (Molecular Devices Cooperation, Sunnyvale, CA, USA). Melarsoprol was used as the control.

[6] = test system: MRC-5 non-tumorigenic lung fibroblasts; assay: XTT viability assay, MRC-5; type: cell-based, human; conditions: Homo sapiens, MRC5, read-out: metabolic active cells in % of control; for viability at 5 µg/mL: MRC-5, 5 µg/mL; for viability at 5 µg/mL / viability at 50 µg/mL: 72 h; for viability at 50 µg/mL: MRC-5, 50 µg/mL
Description: as §1, §2

[7] = test system: CCRF-CEM leukemia cells; assay: XTT viability assay, CCRF-CEM; type: cell-based; conditions: Homo sapiens, read-out: metabolic active cells in % of control; for viability at 5 µg/mL / viability at 50 µg/mL: 72 h
Description: as §1, §2

[8] = test system: HCT-116 colon cancer cells; assay: XTT viability assay, HCT-116; type: cell-based; conditions: Homo sapiens, read-out: metabolic active cells in % of control; for viability at 5 µg/mL: HCT 116, 5 µg/mL; for viability at 5 µg/mL / viability at 50 µg/mL: 72 h; for viability at 50 µg/mL: HCT 116, 50 µg/mL
Description: as §1, §2

[9] = strain NF54, erythrocytic stages, read-out: P. falc. IC50
[10] = L6 rat skeletal myoblasts, 72 h
[11] = strain STIB900, trypomastigote forms

Compound	viability at 5 µg/mL [1] [%]	viability at 50 µg/mL [1] [%]	viability at 5 µg/mL [2] [%]	viability at 50 µg/mL [2] [%]	IC50 [3, 9] [µM]	SI (IC50 in L6 cells/IC50 P. falciparum) [3]	IC50 [4, 10] [µM]	IC50 [5, 11] [µM]	SI (IC50 in L6 cells/IC50 T. b. rhodesiense) [5]	viability at 5 µg/mL [6] [%]	viability at 50 µg/mL [6] [%]	viability at 5 µg/mL [7] [%]	viability at 50 µg/mL [7] [%]	melting point [°C]	viability at 5 µg/mL [8] [%]	viability at 50 µg/mL [8] [%]	further results
O=C1C=CC(O)(CCN2C(=O)C(Cl)=C(Cl)C2=O)C=C1 [Compound 13e, 3,4-Dichloro-N-[2-(1-hydroxy-4-oxocyclohexa-2,5-dien-1-yl)ethyl]maleimide]	95.6	1.95	81.3	9.53	74.4	0.1	10.3	2.26	4.5	97	0.38	-2.6	0.59	168 to 169	45.3	-0.43	
O=C1C=CC(O)(CCN2C(=O)CCC2=O)C=C1 [Compound 13c, N-[2-(1-Hydroxy-4-oxocyclohexa-2,5-dien-1-yl)ethyl]succinimide]	93.3	0.59	79.8	5.72	8.63		9.9	6.93		139	3.55	79.1	2.15		99	1.1	
COc1cc([C@@H]2c3cc4c(cc3[C@H](O)[C@H]3COC(=O)[C@H]23)OCO4)cc(OC)c1OC [Pod., podophyllotoxin, reference compound]																	IC50 ([4]; Rattus norvegicus, L6, 72 h): 0.007 µM
O=C1C=CC(O)(CCN2C(=O)C3CCCCC3C2=O)C=C1 (stereo not drawn) [Compound 13h, N-[2-(1-Hydroxy-4-oxocyclohexa-2,5-dien-1-yl)ethyl]hexahydrophthalimide]	74.9	0.18	70.8	16.4	3.04	1.0	2.96	1.7	1.7	57.6	0.76	15.7	0.69	135 to 136	44.3	0.49	
O=C1C=CC(O)(CCN2C(=O)c3cc(Cl)c(Cl)cc3C2=O)C=C1 [Compound 13d, 4,5-Dichloro-N-[2-(1-hydroxy-4-oxocyclohexa-2,5-dien-1-yl)ethyl]phthalimide]	72.1	1.79	28.6	24.8	3.24	1.9	6.28	5.71	1.1	46.4	1.01	13.8	3.33	213 to 214	41.2	0.44	
CCN(CC)CCCC(C)Nc1ccnc2cc(Cl)ccc12 (stereo not drawn) [Chl., Chloroquine, reference compound]																	IC50 ([3]; NF54, read-out: P. falc. IC50): 0.002 µM
CC[C@]1(O)C[C@@H]2CN(CCc3c([nH]c4ccccc34)[C@@](C(=O)OC)(c3cc4c(cc3OC)N(C)[C@H]3[C@@](O)(C(=O)OC)[C@H](OC(C)=O)[C@]5(CC)C=CCN6CC[C@]43[C@@H]65)C2)C1 [VBN, Vinblastine, reference compound]																	viability at 0.01 µg/mL ([1]; U251, 0.01 µg/mL, positive control): 45.3 ± 3.81%; viability at 0.01 µg/mL ([2]; MDA-MB-231, 0.01 µg/mL, positive control): 42 ± 7.97%; viability at 0.01 µg/mL ([6]; MRC-5, 0.01 µg/mL, positive control): 63.8 ± 5.29%; viability at 0.01 µg/mL ([7]; 0.01 µg/mL, positive control): 23.6 ± 7.62%; viability at 0.01 µg/mL ([8]; HCT 116, 0.01 µg/mL, positive control): 39 ± 5.1%
Nc1nc(N)nc(Nc2ccc([As]3SCC(CO)S3)cc2)n1 (stereo not drawn) [Mel., melarsoprol, reference compound]																	IC50 [5]: 0.004 µM

Reference: publication PMC6278284, “Synthesis of Jacaranone-Derived Nitrogenous Cyclohexadienones and Their Antiproliferative and Antiprotozoal Activities” (Molecules, 2018)
